We go through 16 compounds from PubChem BioAssay (NCI).

Assay in all cases: DTP human tumour cell line panel, 48 h
Experiment [1] concerns SK-OV-3 ovarian.
Experiment [2] deals with DLD-1 colon.
Experiment [3] has as its system OVCAR-5 ovarian.
The test system of experiment [4] is UO-31 renal.
Experiment [5] deals with SW-620 colon.
The subject of experiment [6] is OVCAR-4 ovarian.
Experiment [7] concerns DMS 273 small cell lung.
Experiment [8] relates to IGROV1 ovarian.

Molecules are shown by their SMILES.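 Method: 48-hour compound exposure of cells in 96-well plates, five concentrations, linear interpolation of endpoints. GI50: concentration for 50% inhibition of growth. TGI denotes the concentration required for complete inhibition of growth.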

In general, TGI refers to the concentration at which net growth stops. Higher therefore signals less potent growth arrest. What is called GI50 is the concentration that inhibits growth by half.

On to `CCCCCCCCCCSS(=O)(=O)c1ccc(C)cc1`, for which the TGI in experiment [1] is 42.9 µM; in experiment [2], 29.8 µM; in experiment [3], 30.6 µM; in experiment [4], 29 µM; in experiment [5], 33.4 µM; in experiment [6], 32 µM. Besides, the concentration for total growth inhibition (TGI) in experiment [7] was determined as 23 µM; in experiment [8], 33.7 µM.
Regarding `CC(=O)[CH-]C(=O)c1ccccc1.CC(=O)[CH-]C(=O)c1ccccc1.CC(C)CCCC(C)[C@H]1CCC2[C@@H]3CCC4C[C@@H]([O-])CC[C@]4(C)C3CC[C@@]21C.CC(C)CCCC(C)[C@H]1CCC2[C@@H]3CCC4C[C@@H]([O-])CC[C@]4(C)C3CC[C@@]21C.Cl.[Ti+4]` (stereo not given in full), the GI50 in experiment [1], in experiment [2], in experiment [3], in experiment [4], in experiment [5] and in experiment [6] was greater than 25 µM throughout. The GI50 in experiment [7] and in experiment [8] was greater than 25 µM in each case. For the same compound, the concentration for total growth inhibition (TGI) in experiment [1], in experiment [2], in experiment [3], in experiment [4], in experiment [5] and in experiment [6] was greater than 25 µM each time. The TGI in experiment [7] and in experiment [8] was greater than 25 µM each time.
Take `C=CCCC12CCCC(=O)C1Sc1ccc3ccccc3c12` (stereo not given): the TGI in experiment [1] is 66.4 µM; in experiment [2], 71.5 µM; in experiment [3] it was 93.5 µM; in experiment [4], 42.5 µM; in experiment [5], 58.6 µM; in experiment [6], greater than 100 µM. The figures for the TGI in experiment [7] and in experiment [8] were 23.6 µM and greater than 100 µM, respectively.
Take `CC(C)[C@H](COC(C)(C)C)N=CN1CSc2ccccc21`: the TGI is 78.3 µM in experiment [1]; greater than 100 µM in experiment [2]; greater than 100 µM in experiment [3]; greater than 100 µM in experiment [4]; greater than 100 µM in experiment [5]; greater than 100 µM in experiment [6]. Further, the total growth inhibition concentration (TGI) was 37.8 µM in experiment [7] and greater than 100 µM in experiment [8].
Take `COC(=O)/C=C\C1C(C(=O)OC)C2(C(=O)OC)CCC1(C(=O)OC)N2` (stereo not given): the TGI in experiment [1] turned out to be 31.9 µM; in experiment [2] it was 12.4 µM; in experiment [3], 34.5 µM; in experiment [4], 30.8 µM; in experiment [5], 9.38 µM; in experiment [6] it was 34.5 µM. Also, the figures for the TGI in experiment [7] and in experiment [8] were 33.9 µM and greater than 58.1 µM, respectively.
With `CC[O+]=c1cccc2ssnc1-2`, the TGI in experiment [1], in experiment [2], in experiment [3], in experiment [4], in experiment [5] and in experiment [6] was greater than 100 µM each time. The concentration for total growth inhibition (TGI) in experiment [7] and in experiment [8] was greater than 100 µM throughout.
`C/C(=C\c1ccccc1)C(O)S(=O)(=O)O` (stereo not given): the TGI in experiment [1], in experiment [2], in experiment [3], in experiment [4], in experiment [5] and in experiment [6] was greater than 100 µM in each case. Further, the TGI in experiment [7] and in experiment [8] was greater than 100 µM in each case.
As for `C=CC1(C)/C(=N\O)C(C)(CC)C(=O)N1O` (stereo not given), the TGI in experiment [1], in experiment [2], in experiment [3], in experiment [4], in experiment [5] and in experiment [6] was greater than 100 µM in each case. For the same compound, the TGI in experiment [7] and in experiment [8] was greater than 100 µM each time.
As to `COc1cccc(C(=O)O)c1Cc1cccc2ccccc12`, the total growth inhibition concentration (TGI) in experiment [1], in experiment [2], in experiment [3], in experiment [4], in experiment [5] and in experiment [6] was greater than 100 µM throughout. The TGI in experiment [7] and in experiment [8] was greater than 100 µM in each case.
On to `O=S(O)CCCCSSCCCCS(=O)(O)=S`, for which the TGI was greater than 100 µM in experiment [1]; greater than 100 µM in experiment [2]; greater than 100 µM in experiment [3]; greater than 100 µM in experiment [4]; greater than 100 µM in experiment [5]; 79 µM in experiment [6]. Further, the TGI in experiment [7] and in experiment [8] was greater than 100 µM in each case.
As to `c1ccc2c(c1)[Se]c1ccccc1[Se]2`, the TGI in experiment [1] was greater than 100 µM; in experiment [2] it was greater than 100 µM; in experiment [3], greater than 100 µM; in experiment [4], greater than 100 µM; in experiment [5] it was greater than 100 µM; in experiment [6], 67.1 µM. Moreover, the TGI in experiment [7] and in experiment [8] was greater than 100 µM in each case.
As to `CC(C)c1cccc2sc(NC(=O)C(=O)CC(=O)c3ccc(F)cc3)nc12`, the TGI in experiment [1], in experiment [2], in experiment [3], in experiment [4], in experiment [5] and in experiment [6] was greater than 100 µM each time. Also, the TGI in experiment [7] and in experiment [8] was greater than 100 µM throughout.
Take `CCC(=O)[O-].CCC(=O)[O-].N.N.N.N.[Co+3].[O-][Cl+3]([O-])([O-])[O-]`: the GI50 in experiment [1], in experiment [2], in experiment [3], in experiment [4], in experiment [5] and in experiment [6] was greater than 100 µM each time. The GI50 in experiment [7] and in experiment [8] was greater than 100 µM in each case. Besides, the concentration for total growth inhibition (TGI) in experiment [1], in experiment [2], in experiment [3], in experiment [4], in experiment [5] and in experiment [6] was greater than 100 µM in each case. Besides, the TGI in experiment [7] and in experiment [8] was greater than 100 µM in each case.
`CCCC(=O)C(CC)/C(CCC(=O)N(Cc1ccccc1)Cc1ccccc1)=N/NC(=O)C[N+](C)(C)C` (stereo not given): the TGI in experiment [1], in experiment [2], in experiment [3], in experiment [4], in experiment [5] and in experiment [6] was greater than 100 µM throughout. The total growth inhibition concentration (TGI) in experiment [7] and in experiment [8] was greater than 100 µM throughout.
For `NC(N)=NS(=O)(=O)c1ccc(NC(=O)c2ccc(Cl)c3c(Nc4ccc(S(=O)(=O)N=C(N)N)cc4)c4ccccc4nc23)cc1`, the concentration for total growth inhibition (TGI) in experiment [1], in experiment [2], in experiment [3], in experiment [4], in experiment [5] and in experiment [6] was greater than 100 µM throughout. Moreover, the TGI in experiment [7] and in experiment [8] was greater than 100 µM throughout.
`CCOc1ccccc1N=C(NC(=O)CC)SC`: the TGI in experiment [1] was greater than 10 µM; in experiment [2], greater than 100 µM; in experiment [3], greater than 10 µM; in experiment [4], greater than 100 µM; in experiment [5] it was greater than 100 µM; in experiment [6] it was greater than 100 µM. Also, the total growth inhibition concentration (TGI) in experiment [7] and in experiment [8] was greater than 100 µM throughout. Besides, the GI50 was greater than 10 µM in experiment [2]; greater than 100 µM in experiment [4]; greater than 100 µM in experiment [5]; greater than 10 µM in experiment [6]; greater than 100 µM in experiment [7]; greater than 100 µM in experiment [8].
